Laboratory results reported in PubChem BioAssay AID1963435 (Molecular Pharmacology Branch, DTP, NCI, 2024).

Tested on: PANC-1 complex spheroid growth, percent test/control
Assay: Anticancer human tumor PANC-1 cell line growth inhibition [Asc];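 note: spheroids exposed to agents for 7 days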;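 for viability, T/C: percent viability relative to DMSO vehicle wells taken as 100%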
Conditions: for IC50: curve of first compound; for viability, T/C: stronger effect = lower value
Outline: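 Concentration series start at each agent's clinical Cmax, or at 10 microM when none is established, and drop in half-log steps; agents are applied alone or together to complex spheroids built with HUVEC and hMSC.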

O=C(c1ccc(F)c(F)c1Nc1ccc(I)cc1F)N1CC(O)([C@@H]2CCCCN2)C1 + CCN1C(C(=O)NC23CCC(C(=O)O)(CC2)CC3)C(c2cccc(Cl)c2F)C2(C(=O)Nc3cc(Cl)ccc32)C12CCCCC2
IC50 (second compound 0.00949 µM): > 1 µM | IC50 (second compound 0.03 µM): > 1 µM | IC50 (second compound 0.0949 µM): > 1 µM | IC50 (second compound 0.3 µM): > 1 µM | IC50 (second compound 0.949 µM): > 1 µM | IC50 (second compound 3 µM): > 1 µM | viability, T/C (second compound 0.00949 µM, first compound 0.00316 µM): 90.7% | viability, T/C (second compound 0.00949 µM, first compound 0.01 µM): 93.4% | viability, T/C (second compound 0.00949 µM, first compound 0.0316 µM): 87.1% | viability, T/C (second compound 0.00949 µM, first compound 0.1 µM): 81.8% | viability, T/C (second compound 0.00949 µM, first compound 0.316 µM): 93.1% | viability, T/C (second compound 0.00949 µM, first compound 1 µM): 93.7% | viability, T/C (second compound 0.03 µM, first compound 0.00316 µM): 90.5% | viability, T/C (second compound 0.03 µM, first compound 0.01 µM): 98.3% | viability, T/C (second compound 0.03 µM, first compound 0.0316 µM): 98.5% | viability, T/C (second compound 0.03 µM, first compound 0.1 µM): 87.3% | viability, T/C (second compound 0.03 µM, first compound 0.316 µM): 95% | viability, T/C (second compound 0.03 µM, first compound 1 µM): 97.4% | viability, T/C (second compound 0.0949 µM, first compound 0.00316 µM): 93.9% | viability, T/C (second compound 0.0949 µM, first compound 0.01 µM): 97% | viability, T/C (second compound 0.0949 µM, first compound 0.0316 µM): 88.4% | viability, T/C (second compound 0.0949 µM, first compound 0.1 µM): 84.2% | viability, T/C (second compound 0.0949 µM, first compound 0.316 µM): 92.4% | viability, T/C (second compound 0.0949 µM, first compound 1 µM): 104% | viability, T/C (second compound 0.3 µM, first compound 0.00316 µM): 97.5% | viability, T/C (second compound 0.3 µM, first compound 0.01 µM): 89.4% | viability, T/C (second compound 0.3 µM, first compound 0.0316 µM): 89.6% | viability, T/C (second compound 0.3 µM, first compound 0.1 µM): 91.7% | viability, T/C (second compound 0.3 µM, first compound 0.316 µM): 100% | viability, T/C (second compound 0.3 µM, first compound 1 µM): 93.8% | viability, T/C (second compound 0.949 µM, first compound 0.00316 µM): 100% | viability, T/C (second compound 0.949 µM, first compound 0.01 µM): 104% | viability, T/C (second compound 0.949 µM, first compound 0.0316 µM): 91.8% | viability, T/C (second compound 0.949 µM, first compound 0.1 µM): 105% | viability, T/C (second compound 0.949 µM, first compound 0.316 µM): 104% | viability, T/C (second compound 0.949 µM, first compound 1 µM): 99% | viability, T/C (second compound 3 µM, first compound 0.00316 µM): 110% | viability, T/C (second compound 3 µM, first compound 0.01 µM): 115% | viability, T/C (second compound 3 µM, first compound 0.0316 µM): 106% | viability, T/C (second compound 3 µM, first compound 0.1 µM): 105% | viability, T/C (second compound 3 µM, first compound 0.316 µM): 109% | viability, T/C (second compound 3 µM, first compound 1 µM): 112%

CNC(C)C(=O)NC1CN(S(=O)(=O)c2cccc(S(=O)(=O)N3CCC4CCC(C(=O)NC(c5ccccc5)c5ccccc5)N4C(=O)C(NC(=O)C(C)NC)C3)c2)CCC2CCC(C(=O)NC(c3ccccc3)c3ccccc3)N2C1=O (centres undefined) + Cc1c(S(C)(=O)=O)c(-c2cc(F)cc(N3CCN(c4ccc(NS(=O)(=O)c5ccc(NC(CCN6CCC(C(=O)OCCCP(=O)(O)O)CC6)CSc6ccccc6)c(S(=O)(=O)C(F)(F)F)c5)cc4)CC3)c2)c(-c2ccc(Cl)cc2)n1C(C)C
IC50 (second compound 0.0316 µM): > 1 µM | IC50 (second compound 0.1 µM): > 1 µM | IC50 (second compound 0.316 µM): > 1 µM | IC50 (second compound 1 µM): > 1 µM | IC50 (second compound 3.16 µM): > 1 µM | IC50 (second compound 10 µM): > 1 µM | viability, T/C (second compound 0.0316 µM, first compound 0.00316 µM): 100% | viability, T/C (second compound 0.0316 µM, first compound 0.01 µM): 92.3% | viability, T/C (second compound 0.0316 µM, first compound 0.0316 µM): 97.5% | viability, T/C (second compound 0.0316 µM, first compound 0.1 µM): 94.9% | viability, T/C (second compound 0.0316 µM, first compound 0.316 µM): 98.6% | viability, T/C (second compound 0.0316 µM, first compound 1 µM): 91.8% | viability, T/C (second compound 0.1 µM, first compound 0.00316 µM): 96.6% | viability, T/C (second compound 0.1 µM, first compound 0.01 µM): 98.4% | viability, T/C (second compound 0.1 µM, first compound 0.0316 µM): 105% | viability, T/C (second compound 0.1 µM, first compound 0.1 µM): 93.8% | viability, T/C (second compound 0.1 µM, first compound 0.316 µM): 98.6% | viability, T/C (second compound 0.1 µM, first compound 1 µM): 96.9% | viability, T/C (second compound 0.316 µM, first compound 0.00316 µM): 98.3% | viability, T/C (second compound 0.316 µM, first compound 0.01 µM): 113% | viability, T/C (second compound 0.316 µM, first compound 0.0316 µM): 97.4% | viability, T/C (second compound 0.316 µM, first compound 0.1 µM): 101% | viability, T/C (second compound 0.316 µM, first compound 0.316 µM): 103% | viability, T/C (second compound 0.316 µM, first compound 1 µM): 91.9% | viability, T/C (second compound 1 µM, first compound 0.00316 µM): 101% | viability, T/C (second compound 1 µM, first compound 0.01 µM): 113% | viability, T/C (second compound 1 µM, first compound 0.0316 µM): 105% | viability, T/C (second compound 1 µM, first compound 0.1 µM): 102% | viability, T/C (second compound 1 µM, first compound 0.316 µM): 109% | viability, T/C (second compound 1 µM, first compound 1 µM): 88.9% | viability, T/C (second compound 3.16 µM, first compound 0.00316 µM): 104% | viability, T/C (second compound 3.16 µM, first compound 0.01 µM): 104% | viability, T/C (second compound 3.16 µM, first compound 0.0316 µM): 103% | viability, T/C (second compound 3.16 µM, first compound 0.1 µM): 94.9% | viability, T/C (second compound 3.16 µM, first compound 0.316 µM): 98.5% | viability, T/C (second compound 3.16 µM, first compound 1 µM): 90.7% | viability, T/C (second compound 10 µM, first compound 0.00316 µM): 173% | viability, T/C (second compound 10 µM, first compound 0.01 µM): 183% | viability, T/C (second compound 10 µM, first compound 0.0316 µM): 173% | viability, T/C (second compound 10 µM, first compound 0.1 µM): 160% | viability, T/C (second compound 10 µM, first compound 0.316 µM): 185% | viability, T/C (second compound 10 µM, first compound 1 µM): 158%
